Assay results: patent publication US6750247B2, “Sponge-derived terpenoids and methods of use” (Galileo Laboratories, Inc., priority 2001, dated 2004)
Counter-ions that a name gives are not always drawn.

Assays:
[1] = system: primary hippocampal neuronal cells; assay: Hippocampal anoxia-reoxygenation cell death assay; type: cell-based, mice; conditions: for Dose for Max. Activity / Percent Activity: 5 hr hypoxia, 20-24 hr reoxygenation; for Percent Activity: at dose for max. activity, live neurons by Cell Tracker Green; for cell viability: compared to hypoxia-reoxygenated cells
Protocol: Neurobasal medium (Life Technologies, Rockville, Md.) with 1× B27 supplement (Life Technologies), […], 25 μM L-glutaxnic acid, and 1× Penicillin/Streptomycin was prepared fresh prior to use. Hank's Basic Salt Solution (HBSS, Ca/Mg-free) was prepared by preparing 1× Hanks CMF (Gibco) supplemented with HEPES (10 mM, pH 7.3), sodium bicarbonate (0.35%), 1× Penicillin/Streptomycin, and 1 mM pyruvate. Poly-D-lysine (Sigma, St. Louis, Mo.) was prepared by filtering a 50 μg/ml solution through 0.2 μm filter tubes. Sigmacote (Sigma, St. Louis, Mo.). Plastic Culture Flasks (T75 cm^2) or 12-well cell culture plates were then treated with Poly-D-Lysine (Sigma, St. Louis, Mo.).
Pregnant female mice (E18-E19) were euthanized with CO2 prior to removal of the uterus, which was then placed in a sterile plastic petri dish. The embryos were removed from the sac, and the embryonic brains removed and immersed in cold (4° C.) Hepes Buffered Salt Solution (HBSS; Ca/Mg free; Life Technologies) in a small petri dish. Hippocampi were then removed from the brains under a dissecting microscope and were placed on a paraffin-covered dish. The meninges were stripped away and the dissected hippocampi were collected in a small petri dish in HBSS. The hippocampi were transferred to a 15-ml centrifuge tube (normally 10-12 brains per tube) filled with HBSS. The tube containing the brains was centrifuged at 1000 rpm for 2 minutes in a GH 3.8 A rotor in an Allegra Centrifuge (Beckman Instruments, Fullerton, Calif.). The supernatant was removed, 2 ml of HBSS was added to the hippocampi in the tube, and the resulting suspension was triturated 2 times each with long-tipped siliconized glass pipettes having progressively smaller apertures, starting with a pipette with a standard size opening (approximately 1.0 mm diameter), following with one having an aperture of half standard size (approximately 0.5 mm diameter), then with one having an aperture about one-half that size (0.25 mm diameter). The suspension was then centrifuged again at 1000 rpm for 2 min in a tabletop centrifuge, the supernatant was discarded, and 2 ml of Neurobasal/B27i (with antibiotics) was added to the tube. The trituration procedure described above was then repeated on this suspension.
The density of cells was determined on a small aliquot of cells using standard counting procedures and correcting for cell viability by trypan blue stain exclusion. Using this procedure, the expected yield is 3×10^5-6×10^5 cells/brain. Cells were then added to PDL-coated 12 well plates, flasks or MetTek dishes in Neurobasal/B27I at a density of about 1.5×10^6 cells (T75 flask) or about 100,000 cells/well of a 12-well plate. Plated cells were incubated at 37° C. with 5% CO2 in air atmosphere. Media was renewed after 3-4 days by replacing half of it with fresh Neurobasal/B27m medium, containing 5 μM cytosine arabinoside (AraC). Seven to eight days from the initial culture, the media was renewed again, by removing one-half or it and replacing with an equal amount of fresh Neurobasal/B27m medium (without Ara-C).
This assay was used to induce ischemia by anoxia-reoxygenation in cultured hippocampal neuronal cells. Test compounds were added to assess potency and efficacy against ischemia-induced neuronal cell injury and cell death.
Neurobasal media, NoG neurobasal media, B27 supplement and B27 Supplement minus AO were obtained from Life Technologies. Neurobasal/B27 medium was prepared with 2× B27 minus AO supplement, 0.5 mM L-glutamine and 0.25× penicillin/streptomycin. Cell Tracker Green was obtained from Molecular Probes and a fresh 5 μM solution was prepared from 10 mM stock just before use. NoG-Neurobasal contains NoG neurobasal medium plus 0.5 mM glucose, 0.1 mM L-glutamine and 0.25× Penicillin/Streptomycin. Primary hippocampal neuronal cells were prepared according to the methods described above and were cultured in poly-D-lysine coated 12 well plates for 10-11 days prior to use. […]

neonatal cardiomyocytes = assay: Myocyte calcium-contractility assay (cardiomyocyte beating anoxia assay); type: cell-based, rat; conditions: 16 hr anoxia, 2 hr reoxygenation; for Percent Activity: at dose for max. activity, Fluo-4 fluorescence
Protocol: 10× Heart Dissection Solution (HDS) contains the following components (g/l) in tissue culture grade water: NaCl, 68; HEPES, 47.6; NaH2PO4, 2; Glucose, 10; KCl, 4; MgSO4, 1, pH adjusted to 7.4. Prior to filter sterilization of diluted (1× HDS) solution, 10 mg phenol red was added to each 500 milliliters of medium. Transferrin and Bovine Insulin were obtained from Life Technologies, and resuspended at a concentration of 4 mg/ml in tissue culture grade water. DMEM-F12- DMEM/F12, powder, 1:1 containing glutamine and pyridoxine hydrochloride was purchased from Life Technologies. To one liter equivalent of the powder was added 2.43 g of sodium bicarbonate and 10 ml of 100× Penicillin/Streptomycin in 950 ml of tissue culture grade water with stirring. The pH was adjusted to 7.2 with 1M HCl and volume was adjusted to 1 liter. The solution was filter sterilized then 2.5 ml of 4 mg/ml Transferrin, 250 μl 4 mg/ml Insulin and 30.7 mg of bromodeoxyuridine were added. DMEM-F12 was also prepared with 4% FBS for pre-coating the tissue culture plates and initial suspension of the cardiomyocyte pellet. Collagenase solution-49 mg of collagenase was resuspended in 120 ml 1× HDS.
Tissue culture plasticware was pre-coated with DMEM-F12-4% FBS by incubating 50 μl per well of a 96-well plate. Two-day old rat pups were removed from their mothers and placed in a sterile container. Pups were dipped quickly into 70% alcohol, then decapitated and the body was placed in an empty sterile tissue culture dish. An incision was made starting at the neck and progressing towards the belly, cutting through the sternum. The heart was removed and placed in a tissue culture dishes containing 1× HDS. The atria were trimmed, and the remaining ventricles were placed into a separate tissue culture dish containing 1× HDS, where they were sectioned into 3-4 pieces each. Ventricles were then transferred to a sterile 250 ml glass flask and the 1× HDS was removed. Twenty milliliters of pre-warmed collagenase solution were added to the ventricles, followed by incubation at 37° C. with shaking. After 30 minutes, the collagenase solution was removed and replaced with 20 ml fresh pre-warmed collagenase. Incubation was continued for an additional 20 minutes. At the end of the incubation, any tissue chunks were allowed to settle prior to removing the collagenase (containing the isolated cardiomyocytes) from the disrupted tissue pieces. The isolated myocytes were added to a 50 ml Falcon tube containing 2 ml Fetal Bovine Serum (FBS). The remaining tissue pieces were subjected to a second digestion by adding 20 ml fresh pre-warmed collagenase and incubating as above for 20 minutes. This second digest was then centrifuged at 1000 rpm for 10 minutes in a GH 3.8 A rotor in an Allegra 6 Centrifuge (Beckman Instruments, Fullerton, Calif.). The resulting supernatant was discarded, and the cell pellet was suspended with 4 ml FBS. The resulting cell suspension was placed in the incubator at 37° C. This step was repeated several additional times to harvest additional material.
Percoll gradients were prepared by adding 2.5 ml of 10× HDS to 22.5 ml of Percoll (Life Technologies) with mixing (Percoll Stock). Top Gradient solution (11 ml Percoll Stock and 14 ml 1× HDS) and Bottom Gradient solution (13 ml Percoll Stock and 7 ml 1× HDS) were prepared. Four milliliters of the Top Gradient solution were transferred into 6×15 ml sterile Falcon tubes. Three milliliters of the Bottom Gradient solution were placed in each tube by inserting a serological pipette to the bottom of the tube and slowly adding the liquid.
All the digests (5 in total) were pooled in one 50 ml Falcon tube and centrifuged on a tabletop Allegra 6 Centrifuge (Beckman Instruments, Fullerton, Calif.) using a GH 3.8 A rotor at 1000 rpm for 10 minutes. The supernatant was discarded, and the cell pellet was resuspended in 12 ml of 1× HDS. Two milliliters of the cell suspension was added to the top of each gradient. […]

[2] = target: T1, 15-human lipoxygenase (15-HLO) (Homo sapiens, UniProt P16050); assay: 15-human lipoxygenase (15-HLO) inhibition assay; type: biochemical; conditions: 3 μM linoleic acid, pH 7.5, approx. 22° C.
T1 construct: made in house
T1 sequence (P16050 1-662): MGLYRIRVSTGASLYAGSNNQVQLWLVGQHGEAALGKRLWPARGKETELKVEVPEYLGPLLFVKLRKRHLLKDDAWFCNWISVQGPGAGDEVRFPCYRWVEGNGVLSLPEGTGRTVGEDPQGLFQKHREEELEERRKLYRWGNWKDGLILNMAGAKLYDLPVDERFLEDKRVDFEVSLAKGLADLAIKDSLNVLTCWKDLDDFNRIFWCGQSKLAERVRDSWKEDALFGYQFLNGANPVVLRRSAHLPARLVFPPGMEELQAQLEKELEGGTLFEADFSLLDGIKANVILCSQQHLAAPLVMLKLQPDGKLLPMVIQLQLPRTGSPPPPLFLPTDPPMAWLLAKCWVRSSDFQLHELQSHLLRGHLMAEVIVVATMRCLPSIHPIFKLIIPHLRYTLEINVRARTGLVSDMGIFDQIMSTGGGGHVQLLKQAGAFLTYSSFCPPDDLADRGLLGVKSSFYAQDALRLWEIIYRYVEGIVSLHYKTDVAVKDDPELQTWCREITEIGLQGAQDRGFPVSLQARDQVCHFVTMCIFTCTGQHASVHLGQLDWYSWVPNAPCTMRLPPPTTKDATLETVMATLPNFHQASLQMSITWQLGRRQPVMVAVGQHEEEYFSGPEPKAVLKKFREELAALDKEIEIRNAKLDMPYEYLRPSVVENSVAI
Protocol: 15-human lipoxygenase (15-HLO) was expressed and purified as described by Holman et al., J. Am. Chem. Soc. […] 15-HLO enzyme activity was determined by direct measurement of the product formation of a 3 μM linoleic acid solution by monitoring the increase of absorbance at 234 nm in 25 mM Hepes (pH 7.5), 0.2% (g/L) cholic acid. All reactions were performed in 2 ml of buffer (approx. 200 nM 15-HLO) under constant stirring at approximately 22° C. IC50 values were determined by measuring the enzymatic rate at a variety of inhibitor concentrations (depending upon inhibitor potency) and plotting their corresponding values versus inhibitor concentration. The corresponding data was fit to a simple saturation curve and the inhibitor concentration at 50% activity was determined. The subject inhibitors used in the assay were dissolved in MeOH at a concentration of approximately 25 mg/ml.

| Structure (SMILES) | Dose for Max. Activity [1] [µg/mL] | Percent Activity [1] | cell viability [1] | Percent Activity (neonatal cardiomyocytes) | Dose for Max. Activity (neonatal cardiomyocytes) [µg/mL] | cell viability (neonatal cardiomyocytes) | IC50 [2] [µM] |
| --- | --- | --- | --- | --- | --- | --- | --- |
| CC(C)=CCC/C(C)=C/CCC1=CC(=O)OC1O (racemic) [Dictyodendrillin B (11), 4-(4,8-dimethyl-nona-3,7-dienyl)-5-hydroxy-5H-furan-2-one] | 0.1 | 56% | increased cell viability | No activity at 100 μg/mL | – | – | – |
| CC(C)=CCC/C(C)=C/CCC1=CC(O)OC1=O (racemic) [Dictyodendrillin C (12), 3-(4,8-dimethyl-nona-3,7-dienyl)-5-hydroxy-5H-furan-2-one] | – | – | – | 46% | 100 | increased cell viability | – |
| CC(C)=CCC[C@@]1(C)CCC[C@]2(C)[C@@H](Cc3cc(C(=O)O)ccc3O)C(C)=CC[C@@H]12 [(−)-jaspic acid (4), 4-hydroxy-3-[2,5,8a-trimethyl-5-(4-methyl-pent-3-enyl)-1,4,4a,5,6,7,8,8a-octahydro-naphthalen-1-ylmethyl]-benzoic acid] | 1 | 63% | increased cell viability | 59% | 3 | increased cell viability | – |
| CC1CCC2C(=CCCC2(C)C)C1(C)CCC(CO)CCCc1ccoc1 (centres unmarked) [Halisulfate 7 alcohol (8), 5-furan-3-yl-2-[2-(1,2,5,5-tetramethyl-1,2,3,4,4a,5,6,7-octahydro-naphthalen-1-yl)-ethyl]-pentan-1-ol] | – | No activity at 10 μg/mL | – | No activity at 75 μg/mL | – | – | – |
| CC(=O)O[C@@H]1OC=C2[C@@H](OC(C)=O)C[C@H]3[C@]4(C)CC[C@@H]5C([C@H](C)CCC5(C)C)[C@H]4C[C@@H](O)[C@]3(C)[C@H]21 (some centres unmarked) [Heteronemin (13), 24,25-epoxy-17(24)-scalarene-12-ol-16,25-diacetate] | 0.1 | 21% | increased cell viability | No activity at 100 μg/mL | – | – | – |
| CCCCCCCC/C=C\CCCCCCCCOS(=O)(=O)O [oleyl sulfate, reference compound] | – | – | – | – | – | – | 0.4 |
